{"source": "patent US8501242B2", "about": "“Methods and compositions for treating neoplasia” (University of Florida Research Foundation, priority 2009, dated 2013)", "key": {"[1]": {"target": "human thymidylate synthase (Homo sapiens, UniProt P04818)", "sequence (P04818 whole entry)": "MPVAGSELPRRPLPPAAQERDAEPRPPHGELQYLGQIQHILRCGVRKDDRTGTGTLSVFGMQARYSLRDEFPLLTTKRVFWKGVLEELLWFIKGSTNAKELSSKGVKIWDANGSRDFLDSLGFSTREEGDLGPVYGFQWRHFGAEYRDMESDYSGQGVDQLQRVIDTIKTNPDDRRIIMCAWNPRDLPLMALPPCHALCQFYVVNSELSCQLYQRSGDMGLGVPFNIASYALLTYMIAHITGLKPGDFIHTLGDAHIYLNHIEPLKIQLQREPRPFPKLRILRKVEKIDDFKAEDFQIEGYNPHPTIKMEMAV", "assay": "spectrophotometric assay of human thymidylate synthase activity", "format": "biochemical", "conditions": "for Ki: Table 2, kinetic parameters of TS in presence of selected compounds", "protocol": "A spectrophotometric assay is used to test compounds for their inhibitory activity against human thymidylate synthase activity. This assay is a modification of the assay of Wahba, A. J., and Friedkin, M. (1961). Direct spectrophotometric evidence for the oxidation of tetrahydrofolate during the enzymatic synthesis of thymidylate (J. Biol. Chem. 236, PC11-12).\nIn the spectrophotometric assay, human thymidylate synthase is preincubated with deoxyuridine monophosphate (and inhibitors) in 96-well plates for 0-5 minutes at room temperature and fresh 5,10-methylene tetrahydrofolate (THF) is added to the mixture immediately before the reaction to yield a volume of 100 μl. 5,10-methylene tetrahydrofolate is prepared fresh prior to every experiment by dissolving THF in 0.26 M formaldehyde, 80 mM dithiothreitol, and 50 mM Tris HCI (pH 6.8/7.0). X-ray crystallography is then utilized to identify any binding site in human thymidylate synthase for an inhibitor and also to characterize its mechanism of action.\nThe 40 highest scoring compounds in the above-mentioned screening assay were obtained and tested for their abilities to inhibit the biochemical activity of human thymidylate synthase. Four compounds were inhibitory and preliminary studies show the enzyme mechanism to be non-competitive (i.e. through modulating or interfering with association among human thymidylate synthase monomers)."}, "HT29": {"test_system": "HT29", "assay": "cell proliferation experiments, combination with 5-FU", "format": "cell-based, human", "conditions": "combination of CNX treatment with 5-FU versus 5FU alone", "text": "(§1) The combination of certain compounds (e.g., CNX) with certain anti-cancer compounds (e.g., 5-FU) can produce synergistic anticancer effects."}, "HeLa": {"test_system": "HeLa", "assay": "cell proliferation experiments, combination with 5-FU", "format": "cell-based, human", "conditions": "combination of CNX treatment with 5-FU versus 5FU alone", "text": "as §1"}}, "data": [{"smiles": "CC(=O)Nc1c(I)cc(I)c(C(=O)O)c1I", "note": "[NSC141235, 3-(acetylamino)-2,4,6-triiodobenzoic acid.6-(methylamino)hexane-1,2,3,4,5-pentol]", "values": [{"measurement": "Ki", "setting": "[1]", "value": 5.4, "unit": "µM"}]}, {"smiles": "O=C(O)Cn1cc(I)c(=O)c(I)c1", "note": "[NSC60718, (3,5-diiodo-4-oxo-1(4H)-pyridinyl)acetic acid]", "values": [{"measurement": "Ki", "setting": "[1]", "value": 29.8, "unit": "µM"}]}, {"smiles": "CCN(CC)S(=O)(=O)c1ccc(C(=O)O)cc1", "note": "[NSC49467, P-(Diethylsulfamoyl)benzoic acid]", "values": [{"measurement": "Ki", "setting": "[1]", "value": 177, "unit": "µM"}]}, {"smiles": "CC(=O)NC(CS)C(=O)O", "note": "(stereo not drawn) [NSC111180, 2-acetamido-3-sulfanylpropanoic acid]", "values": [{"measurement": "Ki", "setting": "[1]", "value": 602, "unit": "µM"}]}, {"smiles": "O=c1[nH]cc(F)c(=O)[nH]1", "note": "[5-FU, 5-fluorouracil, reference compound]", "values": [{"measurement": "Ki", "setting": "[1]", "value": 56.7, "unit": "µM"}]}, {"smiles": "CCn1nc(C(=O)O)c(=O)c2cc3c(cc21)OCO3", "note": "[NSC304467, 1-Ethyl-4-oxo-1,4-dihydro[1,3]dioxolo[4,5-g]cinnoline-3-carboxylic acid]", "values": [{"measurement": "enzyme mechanism of TS inhibition", "setting": "[1]", "value": "non-competitive"}, {"measurement": "inhibiting TS activity (in words)", "setting": "[1]", "value": "potent"}, {"measurement": "Ki", "setting": "[1]", "value": 0.32, "unit": "µM"}, {"measurement": "inhibitory effect on cell proliferation", "setting": "HT29", "value": "greater inhibitory effects than 5FU alone"}, {"measurement": "inhibitory effect on cell proliferation", "setting": "HeLa", "value": "greater inhibitory effects than 5FU alone"}]}, {"smiles": "O=C(O)C(S)C(S)C(=O)O", "note": "(stereo not drawn) [NSC16867, 2,3-Dimercaptosuccinic acid]", "values": [{"measurement": "Ki", "setting": "[1]", "value": 45.5, "unit": "µM"}]}, {"smiles": "O=P(O)(O)OCC(O)CO", "note": "(stereo not drawn) [NSC9231, 2,3-Dihydroxypropyl dihydrogen phosphate]", "values": [{"measurement": "Ki", "setting": "[1]", "value": 2.12, "unit": "µM"}]}]}
